Measured values published in patent US20250295577A1, “EXTRACT OF YOUNG FLOWERS AND COSMETIC USES” (SOCIETE INDUSTRIELLE LIMOUSINE D'APPLICATION BIOLOGIQUE, priority 2021, published 2025).

Tested on: human fibroblasts derived from older donors
Experiment: Cell migration of human fibroblasts (wound, crystal violet, occupied surface)
Type: cell-based
Conditions: for Cell migration: vs older control (Table 5)
Experimental: Cell migration is the ability of certain cells to move. In vitro, it is evaluated by the number of cells covering a surface that is initially empty (Kim et al., 2015; Lampugnani, 1999). The migratory capacity of the cells is reduced with age (Boulter et al., 2013).
Their action was studied on a human fibroblast culture derived from older donors.
On D0, the human fibroblasts are seeded and incubated at 37° C.
After several days of culture, the insert is removed from the culture chamber, creating a wound. The cells are treated with an active ingredient according to the invention or the red flower extract or a solution of N-(1-deoxy-1-fructosyl)-proline then incubated at 37° C.
After several days of culture, the cells are stained with a crystal violet solution at 0.5% (M/V). The viewing is done with an AxioCam MRc camera with microscope coupled to an image analysis system.
The surface ratio occupied by the cells is calculated automatically using software.

## O=C(CN1CCCC1C(=O)O)C(O)C(O)C(O)CO (stereo not shown) [N-(1-deoxy-1-fructosyl)-proline]
1.5 ppm (Table 5)
  Occupied surface ratio: 0.266 UA
1.5 ppm
  Cell migration: 0%
5 ppm (Table 5)
  Occupied surface ratio: 0.328 UA
5 ppm
  Cell migration: +19%
